Measured values: ChEMBL document CHEMBL4699558, “Lead optimization of 8-(methylamino)-2-oxo-1,2-dihydroquinolines as bacterial type II topoisomerase inhibitors” (Bioorg Med Chem, 2020)
Values after ≈ are worked out from the molar mass of the structure shown.

Tested on: Staphylococcus aureus
Assay: Antibacterial activity against hospital-acquired Methicillin -resistant Staphylococcus aureus ATCC BAA-811 by CLSI method
Assay type: functional
Details: not given
Work on `CNc1cc(F)cc2cc(C(=O)Nc3ccc(CO)cc3CN(CCO)C3CCCCC3)c(=O)[nH]c12` yielded an MIC of 1 µg/mL (≈ 2.01 µM).

Tested on: Streptococcus anginosus
Assay: Antibacterial activity against Streptococcus anginosus ATCC 33397 by CLSI method
Assay type: functional
Details: not given
`CNc1cc(F)cc2cc(C(=O)Nc3ccc(CO)cc3CN(CCO)C3CCCCC3)c(=O)[nH]c12` gave an MIC of 0.06 µg/mL (≈ 0.121 µM).

Tested on: Enterococcus faecium
Assay: Antibacterial activity against vancomycin-resistant Enterococcus faecium ATCC 51559 by CLSI method
Assay type: functional
Details: not given
Compound `CNc1cc(F)cc2cc(C(=O)Nc3ccc(CO)cc3CN(CCO)C3CCCCC3)c(=O)[nH]c12` has an MIC of 0.25 µg/mL (≈ 0.503 µM).

Tested on: Staphylococcus aureus
Assay: Antibacterial activity against Staphylococcus aureus ATCC 29213 by CLSI method
Assay type: functional
Details: not given
Compound `CNc1cc(F)cc2cc(C(=O)Nc3ccc(CO)cc3CN(CCO)C3CCCCC3)c(=O)[nH]c12` has an MIC of 1 µg/mL (≈ 2.01 µM).

Target: DNA topoisomerase 2-alpha (Homo sapiens, UniProt P11388)
Sequence (P11388 whole entry): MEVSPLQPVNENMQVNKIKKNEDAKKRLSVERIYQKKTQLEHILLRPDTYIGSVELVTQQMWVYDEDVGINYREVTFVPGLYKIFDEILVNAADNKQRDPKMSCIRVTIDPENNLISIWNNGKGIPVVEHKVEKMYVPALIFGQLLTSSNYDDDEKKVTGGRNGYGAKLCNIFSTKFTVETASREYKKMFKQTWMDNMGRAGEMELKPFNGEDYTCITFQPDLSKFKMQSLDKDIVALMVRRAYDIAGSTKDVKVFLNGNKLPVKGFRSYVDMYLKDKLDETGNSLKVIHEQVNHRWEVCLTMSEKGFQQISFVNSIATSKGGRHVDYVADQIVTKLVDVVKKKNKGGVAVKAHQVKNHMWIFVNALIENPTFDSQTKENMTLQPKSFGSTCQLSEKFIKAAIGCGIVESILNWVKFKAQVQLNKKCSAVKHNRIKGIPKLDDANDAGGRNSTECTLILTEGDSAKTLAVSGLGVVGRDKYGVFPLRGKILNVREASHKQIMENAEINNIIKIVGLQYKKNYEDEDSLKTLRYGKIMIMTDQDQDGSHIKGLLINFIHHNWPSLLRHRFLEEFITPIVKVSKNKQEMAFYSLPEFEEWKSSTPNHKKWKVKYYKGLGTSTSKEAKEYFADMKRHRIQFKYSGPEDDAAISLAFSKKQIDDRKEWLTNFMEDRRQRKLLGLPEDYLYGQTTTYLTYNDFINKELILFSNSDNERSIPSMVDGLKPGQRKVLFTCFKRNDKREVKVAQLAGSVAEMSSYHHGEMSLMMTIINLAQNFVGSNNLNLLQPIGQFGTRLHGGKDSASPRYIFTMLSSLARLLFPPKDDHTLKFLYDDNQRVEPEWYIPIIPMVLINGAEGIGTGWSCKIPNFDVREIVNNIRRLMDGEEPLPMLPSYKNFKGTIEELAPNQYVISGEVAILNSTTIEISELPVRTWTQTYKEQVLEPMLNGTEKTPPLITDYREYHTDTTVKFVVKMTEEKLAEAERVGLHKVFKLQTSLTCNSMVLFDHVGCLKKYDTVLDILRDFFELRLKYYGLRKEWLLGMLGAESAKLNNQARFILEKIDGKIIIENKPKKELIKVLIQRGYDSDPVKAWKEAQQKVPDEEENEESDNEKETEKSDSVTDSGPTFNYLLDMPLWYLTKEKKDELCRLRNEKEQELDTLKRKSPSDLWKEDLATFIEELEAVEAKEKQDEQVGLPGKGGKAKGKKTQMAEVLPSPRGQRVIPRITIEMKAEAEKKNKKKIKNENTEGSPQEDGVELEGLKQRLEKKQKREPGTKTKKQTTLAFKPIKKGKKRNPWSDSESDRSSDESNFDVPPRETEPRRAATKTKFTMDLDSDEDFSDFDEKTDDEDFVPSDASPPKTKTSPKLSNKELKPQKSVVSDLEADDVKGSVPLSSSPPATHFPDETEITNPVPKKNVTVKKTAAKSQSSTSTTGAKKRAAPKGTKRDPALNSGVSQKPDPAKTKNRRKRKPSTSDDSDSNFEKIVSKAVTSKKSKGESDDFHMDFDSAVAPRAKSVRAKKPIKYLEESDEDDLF
Assay: Inhibition of human topoisomerase 2alpha
Assay type: ADME
Details: not given
In the case of `CNc1cc(F)cc2cc(C(=O)Nc3ccc(CO)cc3CN(CCO)C3CCCCC3)c(=O)[nH]c12`, the IC50 is reported as > 100000 nM.

Target: DNA gyrase (Escherichia coli, UniProt P0AES4+P0AES6)
Assay: Inhibition of Escherichia coli DNA gyrase by measuring supercoiling activity incubated for 60 mins by fluorescence based assay
Assay type: protein-complex assay
Details: not given
For `CNc1cc(F)cc2cc(C(=O)Nc3ccc(CO)cc3CN(CCO)C3CCCCC3)c(=O)[nH]c12`, the IC50 was 1.6 nM.

Tested on: Escherichia coli
Assay: Antibacterial activity against Escherichia coli ATCC 25922 in presence of PAbetaN by CLSI method
Assay type: functional
Details: not given
With `CNc1cc(F)cc2cc(C(=O)Nc3ccc(CO)cc3CN(CCO)C3CCCCC3)c(=O)[nH]c12` the MIC was ≤ 0.03 µg/mL.

Tested on: Prevotella melaninogenica
Assay: Antibacterial activity against Prevotella melaninogenica JCM6325 by CLSI method
Assay type: functional
Details: not given
With `CNc1cc(F)cc2cc(C(=O)Nc3ccc(CO)cc3CN(CCO)C3CCCCC3)c(=O)[nH]c12` the MIC was > 32 µg/mL.

Tested on: not listed separately
Assay: Cytotoxicity against human HepG2 cells assessed as reduction in cell viability at 10 uM incubated for 48 hrs by CCK-8 assay
Details: hepg2
In the case of `CNc1cc(F)cc2cc(C(=O)Nc3ccc(CO)cc3CN(CCO)C3CCCCC3)c(=O)[nH]c12`, the cytotoxicity at 48 h, 10 µM is reported as -15.3%.

Tested on: Enterococcus faecalis
Assay: Antibacterial activity against Enterococcus faecalis ATCC 29212 by CLSI method
Assay type: functional
Details: not given
`CNc1cc(F)cc2cc(C(=O)Nc3ccc(CO)cc3CN(CCO)C3CCCCC3)c(=O)[nH]c12` gave an MIC of 0.03 µg/mL (≈ 0.0604 µM).

Tested on: not listed separately
Assay: Cytotoxicity against human HepG2 cells assessed as reduction in cell viability at 50 uM incubated for 48 hrs by CCK-8 assay
Details: hepg2
`CNc1cc(F)cc2cc(C(=O)Nc3ccc(CO)cc3CN(CCO)C3CCCCC3)c(=O)[nH]c12` showed a cytotoxicity at 48 h, 50 µM of 98.5%.

Tested on: Streptococcus pneumoniae
Assay: Antibacterial activity against Streptococcus pneumoniae ATCC 49619 by CLSI method
Assay type: functional
Details: not given
`CNc1cc(F)cc2cc(C(=O)Nc3ccc(CO)cc3CN(CCO)C3CCCCC3)c(=O)[nH]c12` gave an MIC of 0.06 µg/mL (≈ 0.121 µM).

Tested on: Staphylococcus aureus
Assay: Antibacterial activity against community-acquired Methicillin -resistant Staphylococcus aureus ATCC BAA-1556 by CLSI method
Assay type: functional
Details: not given
Work on `CNc1cc(F)cc2cc(C(=O)Nc3ccc(CO)cc3CN(CCO)C3CCCCC3)c(=O)[nH]c12` yielded an MIC of 2 µg/mL (≈ 4.03 µM).

Tested on: Porphyromonas gingivalis
Assay: Antibacterial activity against Porphyromonas gingivalis JCM8525 by CLSI method
Assay type: functional
Details: not given
Work on `CNc1cc(F)cc2cc(C(=O)Nc3ccc(CO)cc3CN(CCO)C3CCCCC3)c(=O)[nH]c12` yielded an MIC of 4 µg/mL (≈ 8.06 µM).

Tested on: Enterococcus faecalis
Assay: Antibacterial activity against vancomycin-resistant Enterococcus faecalis ATCC 51575 by CLSI method
Assay type: functional
Details: not given
Compound `CNc1cc(F)cc2cc(C(=O)Nc3ccc(CO)cc3CN(CCO)C3CCCCC3)c(=O)[nH]c12` has an MIC of 0.015 µg/mL (≈ 0.0302 µM).

Tested on: Bacteroides fragilis
Assay: Antibacterial activity against Bacteroides fragilis ATCC 25285 by CLSI method
Assay type: functional
Details: not given
With `CNc1cc(F)cc2cc(C(=O)Nc3ccc(CO)cc3CN(CCO)C3CCCCC3)c(=O)[nH]c12` the MIC was > 32 µg/mL.
